# Structures can show the parent of a compound that is named as a salt.
# Target: MAGL (Homo sapiens (Human), UniProt Q99685)
# Assay: 2-AG assay (MAGL inhibitory activity, hydrolysis of 2-arachidonoylglycerol followed by mass spectrometry)
# Format: biochemical
# Settings: 50 pM MAGL protein, 15 min pre-incubation, 30 min incubation at RT
# Description: Compounds of formula (II) were profiled for MAGL inhibitory activity by determining the enzymatic activity by following the hydrolysis of the natural substrate 2-arachidonoylglycerol (2-AG) resulting in arachidonic acid, which can be followed by mass spectrometry. This assay is hereinafter abbreviated “2-AG assay”.
# Compounds of formula (II) were profiled for MAGL inhibitory activity by determining the enzymatic activity by following the hydrolysis of the natural substrate 2-arachidonoylglycerol (2-AG) resulting in arachidonic acid, which can be followed by mass spectrometry. This assay is hereinafter abbreviated “2-AG assay”. The 2-AG assay was carried out in 384 well polypropylene assay plates. Compound dilutions were made in 100% DMSO in a polypropylene plate in 3-fold dilution steps to give a final concentration range in the assay from 12.5 μM to 0.8 pM. Compound dilutions were added to MAGL protein in assay buffer (50 mM TRIS, 1 mM EDTA, 0.01% (v/v) Tween-20, 2.5% (v/v) DMSO). After shaking, the plate was incubated for 15 min at RT. To start the reaction, 2-arachidonoylglycerol in assay buffer was added. The final concentrations in the assay was 50 pM for MAGL protein and […] 2-arachidonoylglyerol. After shaking and 30 min incubation at RT, the reaction was quenched by the addition of two assay volumes of acetonitrile containing 4 μM of d8-arachidonic acid. The amount of arachidonic acid formed was traced by an online SPE system (Agilent Rapidfire) coupled to a triple quadrupole mass spectrometer. A C18 SPE cartridge (Agilent G9205A) was used in an acetonitrile/water liquid setup. The mass spectrometer was operated in negative electrospray mode following the mass transitions 303.1→259.1 for arachidonic acid and 311.1→267.0 for d8-arachidonic acid. The activity of the compounds was calculated based on the ratio of intensities [arachidonic acid/d8-arachidonic acid].
# Sequence of MAGL (Q99685 whole entry, species assumed): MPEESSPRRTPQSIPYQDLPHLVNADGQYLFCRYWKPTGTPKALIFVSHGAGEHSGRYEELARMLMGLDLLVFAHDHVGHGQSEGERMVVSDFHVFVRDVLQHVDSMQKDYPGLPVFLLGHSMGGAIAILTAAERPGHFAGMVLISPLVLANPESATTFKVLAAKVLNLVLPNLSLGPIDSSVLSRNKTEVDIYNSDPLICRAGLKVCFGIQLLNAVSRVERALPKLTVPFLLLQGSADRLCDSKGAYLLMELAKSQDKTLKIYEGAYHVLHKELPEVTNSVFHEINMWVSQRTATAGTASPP
row,IC50,SMILES
1,1 nM,"C[C@H]1c2nn(C)c(-c3cc(F)cc(F)c3)c2CCN1C(=O)c1cc(F)cc(OCC2CNC(=O)O2)c1Cl (single isomer, unassigned) [Example 49, 5-[[2-Chloro-3-[3-(3,5-difluorophenyl)-2,7-dimethyl-5,7-dihydro-4H-pyrazolo[3,4-c]pyridine-6-carbonyl]-5-fluoro-phenoxy]methyl]oxazolidin-2-one]"
2,5 nM,"C[C@H]1c2nn(C)c(-c3cc(F)cc(F)c3)c2CCN1C(=O)c1cc(F)cc(OCC2CNC(=O)C2)c1Cl (stereo in doubt) [Example 37, 4-[[2-Chloro-3-[3-(3,5-difluorophenyl)-2,7-dimethyl-5,7-dihydro-4H-pyrazolo[3,4-c]pyridine-6-carbonyl]-5-fluoro-phenoxy]methyl]pyrrolidin-2-one]"
3,187 nM,"C[C@@H]1c2nn(C)c(-c3cc(F)cc(F)c3)c2CCN1C(=O)c1cc(F)cc(OCC2CNC(=O)O2)c1Cl (single isomer, unassigned) [Example 51, 5-[[2-Chloro-3-[3-(3,5-difluorophenyl)-2,7-dimethyl-5,7-dihydro-4H-pyrazolo[3,4-c]pyridine-6-carbonyl]-5-fluoro-phenoxy]methyl]oxazolidin-2-one]"
4,1.01 nM,"C[C@@H]1c2nn(C)c(-c3cc(F)cc(F)c3)c2CCN1C(=O)c1cc(F)cc(CCc2c[nH]nn2)c1Cl [Example 105, [2-chloro-5-fluoro-3-[2-(JH-triazol-4-yl)ethyl]phenyl]-[(7R)-3-(3,5-difluorophenyl)-2,7-dimethyl-5,7-dihydro-4H-pyrazolo[3,4-c]pyridin-6-yl]methanone]"
5,8.44 nM,"CC1c2nn(C)c(-c3cc(F)cc(F)c3)c2CCN1C(=O)c1cc(F)cc(C2=CC(Cl)C(=O)N=C2)c1Cl (stereo not drawn) [Example 97, 3-chloro-5-[2-chloro-3-[3-(3,5-difluorophenyl)-2,7-dimethyl-5,7-dihydro-4H-pyrazolo[3,4-c]pyridine-6-carbonyl]-5-fluoro-phenyl]-3H-pyridin-2-one]"
6,76 nM,"CC1c2nn(C)c(-c3cc(F)cc(F)c3)c2CCN1C(=O)c1cc(F)cc(N2CC(S(C)(=O)=O)C2)c1Cl (stereo not drawn) [Example 22, [2-Chloro-5-fluoro-3-(3-methylsulfonylazetidin-1-yl)phenyl]-[3-(3,5-difluorophenyl)-2,7-dimethyl-5,7-dihydro-4H-pyrazolo[3,4-c]pyridin-6-yl]methanone]"
7,12.4 nM,"CC1c2nn(C)c(-c3cc(F)cc(F)c3)c2CCN1C(=O)c1cc(F)cc(CNC2CNC(=O)C2)c1Cl (stereo not drawn) [Example 106, 4-[[2-chloro-3-[3-(3,5-difluorophenyl)-2,7-dimethyl-5,7-dihydro-4H-pyrazolo[3,4-c]pyridine-6-carbonyl]-5-fluoro-phenyl]methylamino]pyrrolidin-2-one;hydrochloride]"
8,0.5 nM,"CC1c2nn(C)c(-c3cc(F)cc(F)c3)c2CCN1C(=O)c1cc(F)cc(OCC2CNC(=O)C2)c1Cl (single isomer, unassigned) [Example 38, 4-[[2-Chloro-3-[3-(3,5-difluorophenyl)-2,7-dimethyl-5,7-dihydro-4H-pyrazolo[3,4-c]pyridine-6-carbonyl]-5-fluoro-phenoxy]methyl]pyrrolidin-2-one]"
9,31.9 nM,"C[C@H]1c2nn(C)c(-c3cc(F)cc(F)c3)c2CCN1C(=O)c1ncn(-c2cc(Cl)cnc2O)n1 [Example 100, [1-(5-chloro-2-hydroxy-3-pyridyl)-1,2,4-triazol-3-yl]-[(7S)-3-(3,5-difluorophenyl)-2,7-dimethyl-5,7-dihydro-4H-pyrazolo[3,4-c]pyridin-6-yl]methanone]"
10,26.8 nM,"C[C@@H]1c2nn(C)c(-c3cc(Cl)cc(C4(NS(C)(=O)=O)CC4)c3)c2CCN1C(=O)c1cc(F)cc(CCc2c[nH]nn2)c1Cl [Example 89, N-[1-[3-chloro-5-[(7R)-6-[2-chloro-5-fluoro-3-[2-(1H-triazol-4-yl)ethyl]benzoyl]-2,7-dimethyl-5,7-dihydro-4H-pyrazolo[3,4-c]pyridin-3-yl]phenyl]cyclopropyl]methanesulfonamide]"
11,892 nM,"Cc1c(C(=O)N2CCc3c(nn(C)c3-c3cc(F)cc(F)c3)C2C)cccc1N1CCNC1=O (stereo not drawn) [Example 25, 1-[3-[3-(3,5-Difluorophenyl)-2,7-dimethyl-5,7-dihydro-4H-pyrazolo[3,4-c]pyridine-6-carbonyl]-2-methyl-phenyl]imidazolidin-2-one]"
12,188 nM,"COc1cccc(C(=O)N2CCc3c(nn(C)c3-c3cc(F)cc(CC(N)=O)c3)[C@@H]2C)c1Cl [Example 17, 2-[3-[(7S)-6-(2-Chloro-3-methoxy-benzoyl)-2,7-dimethyl-5,7-dihydro-4H-pyrazolo[3,4-c]pyridin-3-yl]-5-fluoro-phenyl]acetamide]"
13,326 nM,"C[C@H]1c2nn(C)c(-c3cc(Cl)cc(S(N)(=O)=O)c3)c2CCN1C(=O)c1ncn(-c2ccc[nH]c2=O)n1 [Example 62, 3-Chloro-5-[(7S)-2,7-dimethyl-6-[1-(2-oxo-1H-pyridin-3 yl)-1,2,4-triazole-3-carbonyl]-5,7-dihydro-4H-pyrazolo[3,4-c]pyridin-3-yl]benzenesulfonamide]"
14,258 nM,"C[C@@H]1c2nn(C)c(-c3cc(F)cc(F)c3)c2CCN1C(=O)c1ccc(CCC2CNC(=O)C2)cc1Cl (single isomer, unassigned) [Example 46, 4-[2-[3-Chloro-4-[3-(3,5-difluorophenyl)-2,7-dimethyl-5,7-dihydro-4H-pyrazolo[3,4-c]pyridine-6-carbonyl]phenyl]ethyl]pyrrolidin-2-one]"
15,183 nM,"COc1cccc(C(=O)N2CCc3c(nn(C)c3-c3cncc(C(F)(F)F)n3)[C@@H]2C)c1Cl [Example 8, (2-Chloro-3-methoxy-phenyl)-[(7S)-2,7-dimethyl-3-[6-(trifluoromethyl)pyrazin-2-yl]-5,7-dihydro-4H-pyrazolo[3,4-c]pyridin-6-yl]methanone]"
16,385 nM,"CC1c2nn(C)c(-c3cc(F)cc(F)c3)c2CCN1C(=O)c1cc(F)cc(C2=NOC(C)(C)C2)c1Cl (stereo not drawn) [Example 28, [2-Chloro-3-(5,5-dimethyl-4H-isoxazol-3-yl)-5-fluoro-phenyl]-[3-(3,5-difluorophenyl)-2,7-dimethyl-5,7-dihydro-4H-pyrazolo[3,4-c]pyridin-6-yl]methanone]"
17,1.77 nM,"C[C@H]1c2nn(C)c(-c3cc(Cl)cc(C4(NS(C)(=O)=O)CC4)c3)c2CCN1C(=O)c1cc(F)cc(CCc2c[nH]nn2)c1Cl [Example 88, N-[1-[3-chloro-5-[(7S)-6-[2-chloro-5-fluoro-3-[2-(1H-triazol-4-yl)ethyl]benzoyl]-2,7-dimethyl-5,7-dihydro-4H-pyrazolo[3,4-c]pyridin-3-yl]phenyl]cyclopropyl]methanesulfonamide]"
18,27 nM,"C[C@H]1c2nn(C)c(-c3cc(F)cc(F)c3)c2CCN1C(=O)c1cc(F)cc(N2CC3(C2)CS(=O)(=O)C3)c1Cl [Example 20, [2-Chloro-3-(2,2-dioxo-2λ^6-thia-6-azaspiro[3.3]heptan-6-yl)-5-fluoro-phenyl]-[(7S)-3-(3,5-difluorophenyl)-2,7-dimethyl-5,7-dihydro-4H-pyrazolo[3,4-c]pyridine-6-yl]methanone]"
19,464 nM,"COc1cccc(C(=O)N2CCc3c(nn(C)c3CNC3(C(F)(F)F)CC3)[C@@H]2C)c1Cl [Example 11, (2-Chloro-3-methoxy-phenyl)-[(7S)-2,7-dimethyl-3-[[[1-(trifluoromethyl)cyclopropyl]amino]methyl]-5,7-dihydro-4H-pyrazolo[3,4-c]pyridin-6-yl]methanone]"
20,4290 nM,"C[C@H]1c2nn(C)c(-c3cncc(C(F)(F)F)n3)c2CCN1C(=O)c1cc(F)cc(-c2ccc(=O)[nH]c2)c1Cl [Example 68, 5-[2-chloro-3-[(7S)-2,7-dimethyl-3-[6-(trifluoromethyl)pyrazin-2-yl]-5,7-dihydro-4H-pyrazolo[3,4-c]pyridine-6-carbonyl]-5-fluoro-phenyl]-1H-pyridin-2-one]"
21,390 nM,"COc1cccc(C(=O)N2CCc3c(nn(C)c3-c3nnc(C(F)(F)F)o3)[C@@H]2C)c1Cl [Example 12, (2-Chloro-3-methoxy-phenyl)-[(7S)-2,7-dimethyl-3-[5-(trifluoromethyl)-1,3,4-oxadiazol-2-yl]-5,7-dihydro-4H-pyrazolo[3,4-c]pyridin-6-yl]methanone]"
22,1230 nM,"CC1c2nn(C)c(-c3cc(F)cc(F)c3)c2CCN1C(=O)c1ccccc1Cn1ccnn1 (stereo not drawn) [Example 24, [3-(3,5-Difluorophenyl)-2,7-dimethyl-5,7-dihydro-4H-pyrazolo[3,4-c]pyridin-6-yl]-[2-(triazol-1-ylmethyl)phenyl]methanone]"
23,1010 nM,"C[C@@H]1c2nn(C)c(-c3cc(Cl)cc(C4(NS(C)(=O)=O)CC4)c3)c2CCN1C(=O)c1cc(F)cc(-c2c[nH]c(C#N)c2)c1Cl [Example 86, N-[1-[3-chloro-5-[(7R)-6-[2-chloro-3-(5-cyano-1H-pyrrol-3-yl)-5-fluoro-benzoyl]-2,7-dimethyl-5,7-dihydro-4H-pyrazolo[3,4-c]pyridin-3-yl]phenyl]cyclopropyl]methanesulfonamide]"

row,SMILES,IC50
1,C=S(N)(=O)c1cc(Cl)cc(-c2c3c(nn2C)C(C)N(C(=O)c2cc(F)cc(-c4ccc(=O)[nH]c4)c2Cl)CC3)c1 (stereo not drawn) [Example 56],12 nM
